Entries after “also recorded” stand apart in the source; their conditions may differ. Non-standard residues stand in square brackets, D forms with d. No end group written: not given here.
Legend:
[1] = system: Human cervical carcinoma cells Hela; test: Telomere DNA damage in Hela cells under X-ray irradiation, detected by FISH; type: cell-based; conditions: peptide 4 h; for telomere DNA damage caused by irradiation of X rays: 5-Gy X ray for 1 h
Method: Human cervical carcinoma cells Hela were respectively treated with various peptides (as shown in SEQ ID NOs:1-26 in Table 1) for 4 h, and then the cells treated with the same peptide were divided into two groups, which were respectively subjected to 0-Gy and 5-Gy irradiation of X ray for 1 h and detected for telomere DNA damage using fluorescence in situ hybridization (FISH).

[2] = system: bleomycin-induced pulmonary fibrosis in mice; test: YK21 in bleomycin-induced pulmonary fibrosis in mice (intratracheal perfusion); type: in vivo
Method: The time program of this experiment was shown in FIG. 1E, specifically, 4 hours later, the mice were all intratracheally perfused with bleomycin (3 mg per kilogram of body weight), and 20 hours after the perfusion of bleomycin, two groups of mice were respectively received a second perfusion of YK21 and a second perfusion of YK21h. After 21 days of the first perfusion of peptide, the mice were all subjected to endotracheal intubation for the detection of respiratory function, and the lung tissue RNA was extracted and subjected to real-time quantitative PCR to detect the mRNA expression of TPP1 and SPC. The lung tissues were embedded with paraffin, sectioned, subjected to Masson and H&E staining and detected by immunofluorescence assay for the expression of α-SMA. Moreover, 10 mg of lung tissues were employed for the determination of hydroxyproline content; and the telomere length of alveolar epithelial type II stem cells (SPC+telomere probe) and the telomere DNA damage in lung tissues (53BP1+telomere probe) were detected by FISH.

[3] = system: bleomycin-induced pulmonary fibrosis in mice; test: ST8 in bleomycin-induced pulmonary fibrosis in mice (intratracheal perfusion); type: in vivo
Method: 4 hours later, the mice were all intratracheally perfused with bleomycin (3 mg per kilogram of body weight), and 21 days after the perfusion of peptide, the mice were subjected to endotracheal intubation for the detection of respiratory function. The type II cells were sorted by flow cytometry and calculated for the proportion. The lung tissue RNA was extracted and subjected to real-time quantitative PCR for the detection of mRNA expression of NG2, […], s100a4, α-SMA and Col6a, and the lung proteins were also extracted and detected by Western Blot for the expression of FBW7, TPP1, α-SMA and internal reference GAPDH. The lung tissues were embedded with paraffin, sectioned, subjected to Masson and H&E staining and detected by immunofluorescence assay for the expression of α-SMA. Moreover, 10 mg of lung tissues were employed for the determination of hydroxyproline content; and the telomere length of type II cells (SPC+telomere probe) was detected by FISH.

[4] = system: mice with overexpression of FBW7 in lung tissues; test: ST8 in mice intratracheally perfused with FBW7-lentivirus (overexpression of FBW7 in lung); type: in vivo; conditions: control GE8
Method: 4 hours later, the two groups of mice perfused with ST8 were respectively intratracheally perfused with a control- or FBW7-lentivirus, and the two groups of mice perfused with GE8 were also respectively intratracheally perfused with the control- or FBW7-lentiviruses. The perfusion was performed every other 4 days in a total number of 4. On the fourth day after the fourth perfusion, the mice were subjected to endotracheal intubation for the detection of respiratory function. The type II cells were sorted by flow cytometry and calculated for the proportion. The lung tissue RNA was extracted and subjected to real-time quantitative PCR for the detection of mRNA expression of α-SMA, Col6a, and MMP3, and the lung proteins were also extracted and detected by Western Blot for the expression of FBW7, TPP1, SPC, α-SMA and internal reference GAPDH. The lung tissues were embedded with paraffin, sectioned, subjected to Masson and H&E staining and detected by immunofluorescence assay for the expression of α-SMA. Moreover, the proportion of lung type II epithelial cells (SPC positive cells) was obtained by immunofluorescence assay; and the telomere length of type II cells (SPC+telomere probe) was detected by FISH.

[5] = system: carbon tetrachloride-induced liver fibrosis in C57BL/6 mice; test: DST8 in carbon tetrachloride-induced liver fibrosis in mice; type: in vivo; conditions: 1 mg/kg intraperitoneal weekly, 4 weeks, Masson staining and Western Blot, control GE8
Method: 12 6 week old wild female C57BL/6 mice were equally divided into four groups, where two groups of mice were intraperitoneally injected with a solution of 10% carbon tetrachloride in olive oil three times a week (on every Monday, Wednesday and Friday, 5 μL per gram of body weight), and the other two groups of mice were intraperitoneally injected with an equal amount of olive oil as control. The two groups injected with carbon tetrachloride were intraperitoneally injected with DST8 (SerArgAsnGlyThrGluGluThr, in D-amino acids), 1 mg per kilogram of body weight) and GE8 (SEQ ID NO:24), respectively, 4 hours before the first injection of carbon tetrachloride in each week. The two control groups were also intraperitoneally injected with DST8 (1 mg per kilogram of body weight) and GE8, respectively, 4 hours before the first injection of olive oil in each week. After 4 consecutive weeks of administration, the liver was isolated, embedded with paraffin, sectioned and subjected to Masson staining and Western Blot analysis.

[6] = system: mice under X-ray irradiation; test: DYK21 applied to dorsal skin of mice with or without X-ray irradiation (skin aging, weight loss, premature death)
Source text: 48 2-4 month old wild mice were equally divided into four groups, and the hair in a 2 cm×2 cm region on the back of each of the mice was removed. […] The mice were photographed and weighed every day, and sacrificed on the 8th day to collect the skin tissues.

[7] = lung tissue mRNA, real-time quantitative PCR, bleomycin mice, vs YK21h
[8] = dorsal skin application 7 days, 4-Gy X-ray daily, compared to DCTL1

KTEETGNRSGRRRQRRKKRGY [DKY21]
telomere DNA damage caused by irradiation of X rays [1]: inhibitory effect

YGRKKRRERRRGSRNGTEETK
telomere DNA damage at a basic level ([1]; 0-Gy): significantly reduce | telomere DNA damage caused by irradiation of X rays [1]: completely inhibit | respiratory function in mice ([2]; 1 mg/kg intratracheal, bleomycin 3 mg/kg, day 21, compared to control peptide YK21h): improve the lung respiratory function; also recorded: significantly improve | pulmonary fibrosis induced by bleomycin ([2]; 1 mg/kg intratracheal, bleomycin 3 mg/kg, day 21, hydroxyproline, Masson, H&E, α-SMA, vs YK21h): prevent the lung aging damage and pulmonary fibrosis; also recorded: inhibit | telomere length of type II epithelial cells ([2]; FISH (SPC+telomere probe), bleomycin mice, vs YK21h): extend telomere length; also recorded: increase | number of lung stem cells ([2]; intratracheal administration to mice in one time): increase the number of lung stem cells | expression of SPC [2, 7]: increase | expression of TPP1 [2, 7]: increase

SRNGTEET [ST8]
telomere DNA damage caused by irradiation of X rays [1]: significantly inhibiting | respiratory dysfunction in mice caused by bleomycin ([3]; 1 mg/kg intratracheal, bleomycin 3 mg/kg, day 21, control GE8): alleviate | telomere length of type II cells ([3]; FISH, bleomycin mice, control GE8): extend the telomere | bleomycin-induced pulmonary fibrosis in mice ([3]; Masson, H&E, α-SMA, fibrosis marker mRNA, control GE8): inhibitory effect | FBW7 expression in lung ([3]; Western Blot, bleomycin mice, control GE8): inhibit FBW7 | proportion of lung type II epithelial cells ([3]; flow cytometry, bleomycin mice, control GE8): improved | respiratory dysfunction caused by the overexpression of FBW7 ([4]; 1 mg/kg intratracheal, FBW7-lentivirus perfused 4 times): significant role in alleviating | decrease in the proportion of type II epithelial cells caused by the overexpression of FBW7 ([4]; FBW7-lentivirus mice): significant role in alleviating | pulmonary fibrosis caused by the overexpression of FBW7 ([4]; FBW7-lentivirus mice): significant role in alleviating | reduction in the expression of TPP1 caused by the overexpression of FBW7 ([4]; FBW7-lentivirus mice): significant role in alleviating | telomere shortening caused by the overexpression of FBW7 ([4]; FISH, FBW7-lentivirus mice): significant role in alleviating

SRNGTEET [DST8]
liver fibrosis caused by carbon tetrachloride [5]: prevent the liver fibrosis; also recorded: significantly inhibit

TyrGlyArgLysLysArgArgGluArgArgArgGlySerArgAsnGlyThrGluGluThrLys [DYK21] ([dY]G[dR][dK][dK][dR][dR][dE][dR][dR][dR]G[dS][dR][dN]G[dT][dE][dE][dT][dK])
telomere DNA damage caused by irradiation of X rays [1]: inhibitory effect | skin damage and fibrous tissue proliferation (skin fibrosis) caused by X-ray irradiation ([6]; H&E and Masson staining, 4-Gy X-ray daily for 7 days, vs DCTL1): completely free of skin fibrosis; also recorded: significant inhibitory effect | number of dermal stem cells ([6]; application to the dorsal skin of mice): significant increase | number of hair follicles ([6]; application to the dorsal skin of mice, irradiation not mentioned): significant increase | acute death caused by X-ray irradiation ([6]; compared to DCTL1): alleviated the acute death to some extent | life span under X-ray irradiation ([6]; compared to DCTL1): prolonged the life of some mice | weight loss caused by X-ray irradiation ([6]; compared to DCTL1): inhibited the weight loss | body weight [6, 8]: larger in body weight | number of hair follicles [6, 8]: more hair follicles | fibrosis area ([6]; skin, X-ray irradiation, vs DCTL1): smaller fibrosis area
